Test results taken from the NIST ThermoML archive (doi:10.1021/je400238j).
± gives the expanded uncertainty stated by the source.

Conditions: Liquid, Ebulliometric method (Recirculating still)

| Structure (SMILES) | vapor or sublimation pressure (323.46 K) [kPa] | vapor or sublimation pressure (338.72 K) [kPa] | vapor or sublimation pressure (348.56 K) [kPa] | vapor or sublimation pressure (351.51 K) [kPa] | vapor or sublimation pressure (359.76 K) [kPa] | vapor or sublimation pressure (360.06 K) [kPa] | vapor or sublimation pressure (380.43 K) [kPa] | vapor or sublimation pressure (380.94 K) [kPa] | vapor or sublimation pressure (394.09 K) [kPa] | vapor or sublimation pressure (394.6 K) [kPa] | vapor or sublimation pressure (398.49 K) [kPa] | vapor or sublimation pressure (398.74 K) [kPa] |
| --- | --- | --- | --- | --- | --- | --- | --- | --- | --- | --- | --- | --- |
| CCO [ethanol] | 30 ± 1.3 | 60 ± 1.5 | 90 ± 1.8 | 101.3 ± 2 |  |  |  |  |  |  |  |  |
| CCCCCCCC [octane] |  |  |  |  | 30 ± 1.3 | 30 ± 2.5 | 60 ± 1.5 | 60 ± 4.7 | 90 ± 1.9 | 90 ± 7 | 101.3 ± 2 | 101.3 ± 7.9 |
